Data set [1] is described as follows: clinical. Particulars: human, in vivo, po, F.
Data set [2] can be described thus: Partition coefficient (logD6.5). To be noted: octanol/water, pH 6.5. It counts as physicochemical.
For data set [3] the following is noted: octanol/water.
The conditions of data set [4]: octanol/water. This is another data set of the same source.
For data set [5] the following is noted: human, in vivo, po.
For data set [6] the following is noted: octanol/water. The source holds these as a separate data set.
Data set [7] can be described thus: Oral bioavailability in human. To be noted: in vivo. The class given is ADME, organism-based.
Data set [8] can be described thus: physchem. To be noted: octanol/water, pH 6.5, logD.
Data set [9] can be described thus: physchem.
The conditions of data set [10]: octanol/water. The source holds these as a separate data set.
A short description of data set [11]: clinical. To be noted: human, in vivo, po.

Bounds are passed on as bounds.

For orientation: bioavailability means the share of a dose that reaches the circulation, judged against a reference dose that is usually intravenous. A higher bioavailability goes with good availability. As usually defined, the logD is the decadic logarithm of the distribution of all forms, ionised or not, between an organic phase and buffer at a given pH. A high value points to a more lipophilic compound. Broadly, the pKa is the negative logarithm of the acid dissociation constant. The low end stands for a group that gives up its proton readily, the high end for a group that holds its proton tightly.

For the compound `CO/C(O)=C1\C(C)=NC(C)=C(C(=O)OC(C)C)C1c1cccc2nonc12` (stereo not drawn), in the data set “clinical [1]”, the bioavailability was ≤ 20%. Besides, the logD in [2] is 1.72. Moreover, in data set [3], the “delta logD” value is reported as 0.
The compound `Nc1ccn([C@H]2CC[C@@H](CO)O2)c(=O)n1` (stereo in doubt; 1) [ZALCITABINE] came in with a logD in data set [4] of 3.2. For the same compound, in data set [5], the F is < 20%.
Take `Nc1ccn([C@H]2CC[C@@H](CO)O2)c(=O)n1` (stereo in doubt; 232) [ZALCITABINE]: in data set [5], the F was > 80%. Besides, the “delta logD” value in data set [6] amounted to 0.
The compound `O=C1C(O)=C([C@H]2CC[C@H](c3ccc(Cl)cc3)CC2)C(=O)c2ccccc21` [ATOVAQUONE] registered a bioavailability in data set [7] of 49%. The logD in “physchem [8]” came out at 3.96.
In the data set “physchem [9]”, `CN1CCN(CC(=O)N2c3ccccc3C(=O)Nc3cccnc32)CC1` [PIRENZEPINE] displayed a pKa of 8.1. For the same compound, in [10], the pH-dependent lipophilicity (logD) is listed as -1.51. In data set [3], the “delta logD” value was -0.83. In addition, the bioavailability in the data set “clinical [11]” was determined as 49%.

The record behind these values is ChEMBL document CHEMBL1133765, “QSAR model for drug human oral bioavailability” (J Med Chem, 2000).
